Reference: patent US5270302A, “Derivatives of tetrapeptides as CCK agonists” (priority 1991, dated 1993)
*1 amine or outer side, *2 acyl side, *3 side chain or, on linkers, in order; H or OH if unused. Where a SMILES comes first, the peptide text is derived from it. Side-chain parts run from the residue outwards. [ ]: non-standard residue; d: D form. The star is where a group is joined. NMeF = CN[C@@H](Cc1ccccc1)C(=O)O; NH(2-Me-phenyl) = Cc1ccccc1N*; Boc = CC(C)(C)OC(=O)*; CO = O=C([*:1])[*:2]

Columns and labels:
guinea pig gallbladder = conditions: read-out: EC50 for contraction; isolated guinea pig gallbladder, 37° C.; 50% of the compound's own maximal contraction
Experimental: Guinea Pig Gallbladder Contraction
Gallbladders were obtained from male guinea pigs (250-300 gm). The bile was emptied by a small incision and the gallbladder was suspended in an organ bath. The tissue was maintained at 37° C., suspended in Krebs-Ringer buffer (mM: NaCl, 118; KCl, 4.7; CaCl2, 2.5; MgCl2, 1.2; NaH2 PO4, 1.2; NaHCO3, 25; choline chloride, 30 mM; glucose, 11) and bubbled with 95% O2 -5% CO2. Isometric contractions were recorded with a Grass polygraph. Baseline tension was set at 0.3 grams. After equilibration for approximately 30 minutes, CCK-8 (20 nM) was introduced and tensions were recorded. After reaching maximal contractions (about 5 minutes), the drug was washed out by overflow. The CCK-8 addition was repeated twice to ensure constant force of contraction.

mice [1] = assay: Behavioral effect of CCK agonists in mice (suppression of locomotor activity); assay type: in vivo
Description: Behavioral Effect of CCK Agonists in Mice
The animals were placed on a slightly elevated metal grid and restrained by the thumb and forefinger at the level of the shoulders, thus immobilizing their heads. Injections were made with a 30 gauge needle with a "stop" consisting of a piece of tygon tubing to limit penetration of the needle to about 4.5 mm below the surface of the skin. The needle was inserted perpendicular to the skull at a midline point equidistant from each eye and an equal distance posterior from the level of the eyes such that the injection site and the two eyes form an equilateral triangle. The injection volume (5 ul) was expelled smoothly over a period of approximately 1 second.
Immediately after the injections the mice were placed in their cages and allowed a 15 minute recovery period prior to the beginning of behavioral observations.
For the behavioral observations, the mice were placed in clear plastic cages. Each cage measured 19×26×15 cm and contained a 60-tube polypropylene test tube rack place on end in the center of the cage to enhance exploratory activity. Observations were made every 30 seconds for a period of 30 minutes. […] Differences among groups were analyzed by Newman-Kewels analysis and a probability level of p<0.05 was accepted as significant.

rats [2] = assay: Feeding effects of chronic administration of CCK-8 and CCK agonists in rat (liquid diet); assay type: in vivo; conditions: ip, 10 nmol/kg, 11 days of testing
Experimental: Feeding Effects of Chronic Administration of CCK-8 and CCK Agonists in Rat
Adult male Sprague-Dawley rats, weighing approximately 250 g, were placed on a restricted diet. Rats were weighed every morning and were allowed access to a liquid diet (Ensure®) for 60 minutes in the morning and 45 minutes in the late afternoon; intakes were recorded every 15 minutes. […] Six to 10 minutes later, the rats were presented with the diet, and intakes were recorded as usual. No injections were administered prior to the PM feeding. After 11 days of testing, half of the animals were sacrificed while the remaining rats were withdrawn from treatment and injected with vehicle for 4 days.

mice [3] = assay: Measurement of plasma insulin in mice following treatment with CCK-8 or a CCK agonist; assay type: in vivo; conditions: tail vein injection, 2 minutes
Experimental: Measurement of Plasma Insulin in Mice Following Treatment With CCK-8 or a CCK Agonist
Male mice, weighing from about 20 to about 30 g each, were used in all experiments. The animals were fed with laboratory lab chow and water ad libitum. CCK-8 or one the CCK agonist compounds of this invention was injected into the tail vein. Two minutes later, the animals were sacrificed and the blood was collected in 1.5 mL heparinized polypropylene tubes. The tubes were centrifuged at 10,000×g for 2 minutes. The insulin levels were determined in the supernatant, i.e., plasma, by radioimmuno assay (RIA) using kits obtained from Radioassay Systems Laboratory (Carson, CA.) or Novo Biolabs (Danbury, Conn.). The results of this assay are shown in Table 3 and are expressed as the percent increase in insulin secretion over insulin secretion observed in mice injected with a saline solution. Each dose was tested in at least six mice and the values presented are averages for the group of mice tested at each dose.

rats [4] = assay: Feeding effect of CCK agonists in food-deprived rats; assay type: in vivo; conditions: i.p., dose 20 μg/kg, one hour feeding, vehicle 9.40 grams
Experimental: Feeding Effect of CCK Agonists in Rats
Forty male, Sprague-Dawley rats were subjected to a 23 hour food deprivation schedule for four days. On the fifth day, the animals were divided into five equal groups based on their previous (4th day) food intake. […] The amount of food consumed was measured after subtraction of spillage.

guinea pig acini = target: T1, guinea pig acini (Cavia porcellus, UniProt Q63931); assay: Amylase release assay in guinea pig pancreatic acini; assay type: cell-based; conditions: 30 minutes at 37° C., reference CCK-8 3×10^-10 M
T1 sequence (Q63931 1-430): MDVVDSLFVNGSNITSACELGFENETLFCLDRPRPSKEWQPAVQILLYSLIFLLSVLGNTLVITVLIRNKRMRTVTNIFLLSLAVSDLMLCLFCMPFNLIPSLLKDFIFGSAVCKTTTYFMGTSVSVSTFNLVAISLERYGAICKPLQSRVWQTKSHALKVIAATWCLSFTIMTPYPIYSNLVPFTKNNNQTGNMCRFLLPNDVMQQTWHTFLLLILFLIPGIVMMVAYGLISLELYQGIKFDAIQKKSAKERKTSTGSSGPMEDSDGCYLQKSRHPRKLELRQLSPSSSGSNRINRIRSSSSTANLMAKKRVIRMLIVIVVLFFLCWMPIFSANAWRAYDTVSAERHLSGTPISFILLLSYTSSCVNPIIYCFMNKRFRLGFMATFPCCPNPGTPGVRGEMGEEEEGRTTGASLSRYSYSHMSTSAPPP
Experimental: Protocol for Amylase Release Assay
Guinea Pig Acini Preparation
Pancreas was dissected out and connective tissues and blood vessels were removed. The pancreas was cut into small pieces (2 mm) by a scissor and placed in a 15 mL conical plastic tube containing 2.5 mL of Krebs-Ringer HEPES (KRH) buffer plus 400 units per mL of collagenase. […] The buffer was supplemented with 1% MEM vitamins, 1% MEM amino acids and 0.001% aprotinin (pancreatic basic trypsin inhibitor). […] The supernatant was discarded and 6 mL of the KRH was added to the cell pellet. […] This wash procedure was repeated once. The cell pellet from the last centrifugation step was then resuspended in 15 mL of KRH containing 0.1% BSA. […] The filtrate, containing the acini, was centrifuged at 50×g for 3 minutes. The acini were then resuspended in 5 mL of KRH-BSA buffer for 30 minutes at 37° C. under 100% O2, with a change of fresh buffer at 15 minutes.
After the 30 minutes incubation time, the acini was resuspended in 100 volumes of KRH-BSA buffer, containing 3 μM phosphoramidon and 100 μM bestatin. […] Amylase activity in the supernatant and the cell pellet were separately determined after appropriate dilutions in 0.1% Triton X-100® (a non-ionic detergent available from Sigma Chemical Co.), 20 mM NaH2 PO4, pH 7.4, by Abbott Amylase A-gent® test using the Abbott Bichromatic Analyzer 200.

| Compound | EC50 (guinea pig gallbladder) | Minimal Effective Dose, suppression of locomotor activity (mice [1]; ICV administration) | Minimal Effective Dose, suppression of locomotor activity (mice [1]; IP administration) | AM liquid food intake versus controls (rats [2]) | body weight gain versus controls (rats [2]) | % Increase In Insulin Secretion Versus Saline Control (mice [3]; dose 3 nmole/kg) | % Increase In Insulin Secretion Versus Saline Control (mice [3]; dose 10 nmole/kg) | % Increase In Insulin Secretion Versus Saline Control (mice [3]; dose 30 nmole/kg) | % Increase In Insulin Secretion Versus Saline Control (mice [3]; dose 100 nmole/kg) | Mean Food Intake (rats [4]) | EC50 (guinea pig acini) |
| --- | --- | --- | --- | --- | --- | --- | --- | --- | --- | --- | --- |
| CSCC[C@H](NC(=O)[C@H](Cc1ccc(OS(=O)(=O)O)cc1)NC(=O)[C@@H](N)CC(=O)O)C(=O)NCC(=O)N[C@@H](Cc1c[nH]c2ccccc12)C(=O)N[C@@H](CCSC)C(=O)N[C@@H](CC(=O)O)C(=O)N[C@@H](Cc1ccccc1)C(N)=O [CCK-8, Asp-Tyr(SO3 H)-Met-Gly-Trp-Met-Asp-PheNH2] | 5.9 nM | 3.0 nmol/mouse | 0.001 µmol/kg | significantly reduced intakes on just the first and last treatment days | no significant effects on body weight gain | 65% | 85% | 90% | 70% | 6.56 grams |  |
| Cc1ccccc1NC(=O)NCCCC[C@H](NC(=O)[C@H](Cc1c[nH]c2ccccc12)NC(=O)OC(C)(C)C)C(=O)N[C@@H](CC(=O)O)C(=O)N(C)[C@@H](Cc1ccccc1)C(N)=O [Example 33, t-BOC-Trp-Lys(ε-N-(2-methylphenyl)aminocarbonyl)-Asp-(NMe)PheNH2] (Boc-WK([CO-NH(2-Me-phenyl)])D[NMeF]-NH2) | 10 nM |  |  |  |  |  |  |  |  |  |  |
| t-BOC-Trp-Nle(6-((2-methylphenyl)aminocarbonyl)oxy)-Asp-(NMe)PheNH2 [Example 114] |  |  |  |  |  |  |  |  |  |  | 3 nM |
